{
  "source": "patent US20070010670A1",
  "about": "“Nitrogen-containing fused ring compounds and use thereof” (Japan Tobacco Inc., priority 2004, published 2007)",
  "data": [
    {"target": "T1, CYP2C9 (Homo sapiens, UniProt P11712)", "T1 construct": "Human liver microsome (20 mg protein/mL, 5 μL, Xenotech LLC, purchased from Lenexa KS); tissue Xenotech LLC; host or cells: human liver microsome", "T1 sequence (P11712 whole entry)": "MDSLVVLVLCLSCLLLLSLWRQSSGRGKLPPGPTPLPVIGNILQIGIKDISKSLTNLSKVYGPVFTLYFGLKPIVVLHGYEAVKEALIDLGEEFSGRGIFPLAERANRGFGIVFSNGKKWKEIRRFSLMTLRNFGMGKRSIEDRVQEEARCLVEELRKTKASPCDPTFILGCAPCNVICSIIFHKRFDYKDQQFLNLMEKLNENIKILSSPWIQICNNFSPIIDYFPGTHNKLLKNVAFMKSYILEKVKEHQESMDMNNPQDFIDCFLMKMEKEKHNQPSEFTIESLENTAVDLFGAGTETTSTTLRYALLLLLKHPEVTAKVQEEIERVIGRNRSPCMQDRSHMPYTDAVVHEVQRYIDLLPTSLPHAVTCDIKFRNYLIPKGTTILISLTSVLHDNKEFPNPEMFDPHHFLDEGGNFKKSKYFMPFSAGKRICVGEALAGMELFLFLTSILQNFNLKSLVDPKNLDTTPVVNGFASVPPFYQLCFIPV", "experiment": "CYP inhibitory test using human liver microsome", "assay_type": "in vitro ADME", "settings": "model substrate diclofenac, 37° C. 10 min, read-out: CYP2C9 inhibition IC50", "protocol": "Human liver microsome (20 mg protein/mL, 5 μL, Xenotech LLC, purchased from Lenexa KS) was suspended in 100 mM potassium phosphate buffer (70 μL, pH 7.4), mixed with a solution (0.5 μL) of the Example compound dissolved in DMSO and preincubated at 37° C. for 5 min. NADPH producing system coenzyme solution (β-nicotinamide adenine dinucleotide phosphate: 5.2 mM, D-glucose-6-phosphate: 13.2 mM, magnesium chloride: 13.2 mM, glucose-6-phosphate dehydrogenase: 1.8 U/mL) 25 μL, and a model substrate (CYP3A4: midazolam 1 mM, CYP2D6: bufuralol 1 mM, CYP2C9: diclofenac 2 mM) 0.5 μL dissolved in DMSO were added to start the reaction. After incubation at 37° C. for 10 min., acetonitrile (200 μL) containing an internal standard substance (propranolol 1 μM) was added and the mixture was centrifuged (room temperature, 3000 rpm, 20 min). The amount of the metabolite produced from each model substrate in the supernatant was measured by high performance liquid chromatography/mass spectrometry (LC/MS/MS) and each CYP enzyme activity was determined. The concentration showing 50% inhibition (IC50) was calculated relative to the enzyme activity without addition of Example compound (DMSO 0.5 μL added) as 100%.", "units": {"IC50": "µM"}, "values": [
      {"compound": "O=C(c1cc(Cl)c(O)c(Cl)c1)N1CCOc2ccc([N+](=O)[O-])cc21", "note": "[Example 67, (3,5-dichloro-4-hydroxyphenyl)-(6-nitro-2,3-dihydrobenzo[1,4]oxazin-4-yl)-methanone]", "IC50": 49},
      {"compound": "Nc1ccc2c(c1)N(C(=O)c1cc(Cl)c(O)c(Cl)c1)CCO2", "note": "[Example 68, (6-amino-2,3-dihydrobenzo[1,4]oxazin-4-yl)-(3,5-dichloro-4-hydroxyphenyl)-methanone]", "IC50": 27},
      {"compound": "O=C(c1cc(Br)c(O)c(Br)c1)N1CCOc2ccc([N+](=O)[O-])cc21", "note": "[Example 69, (3,5-dibromo-4-hydroxyphenyl)-(6-nitro-2,3-dihydrobenzo[1,4]oxazin-4-yl)-methanone]", "IC50": 21},
      {"compound": "O=C(c1cc(Cl)c(O)c(Cl)c1)N1CCOc2cc([N+](=O)[O-])ccc21", "note": "[Example 70, (3,5-dichloro-4-hydroxyphenyl)-(7-nitro-2,3-dihydrobenzo[1,4]oxazin-4-yl)-methanone]", "IC50": 20},
      {"compound": "Nc1ccc2c(c1)OCCN2C(=O)c1cc(Cl)c(O)c(Cl)c1", "note": "[Example 71, (7-amino-2,3-dihydrobenzo[1,4]oxazin-4-yl)-(3,5-dichloro-4-hydroxyphenyl)-methanone]", "IC50": 15},
      {"compound": "CS(=O)(=O)Nc1ccc2c(c1)OCCN2C(=O)c1cc(Cl)c(O)c(Cl)c1", "note": "[Example 72, N-[4-(3,5-dichloro-4-hydroxybenzoyl)-3,4-dihydro-2H-benzo[1,4]oxazin-7-yl]-methanesulfonamide]", "IC50": 13},
      {"compound": "CC(=O)N1CCN(C(=O)c2cc(Cl)c(O)c(Cl)c2)c2ccccc21", "note": "[Example 73, 1-[4-(3,5-dichloro-4-hydroxybenzoyl)-3,4-dihydro-2H-quinoxalin-1-yl]-ethanone]", "IC50": "> 50"},
      {"compound": "CN1CCN(C(=O)c2cc(Cl)c(O)c(Cl)c2)c2ccccc21", "note": "[Example 74, (3,5-dichloro-4-hydroxyphenyl)-(4-methyl-3,4-dihydro-2H-quinoxalin-1-yl)-methanone]", "IC50": 33},
      {"compound": "O=C(c1ccc(O)c([N+](=O)[O-])c1)N1CCOc2ccccc21", "note": "[Example 75, (2,3-dihydrobenzo[1,4]oxazin-4-yl)-(4-hydroxy-3-nitrophenyl)-methanone]", "IC50": "> 50"},
      {"compound": "O=C(c1cc(Cl)c(O)c(Cl)c1)N1CCc2ccccc21", "note": "[Example 77, (3,5-dichloro-4-hydroxyphenyl)-(2,3-dihydroindol-1-yl)-methanone]", "IC50": 18},
      {"compound": "Nc1ccc2c(c1)CCN2C(=O)c1cc(Cl)c(O)c(Cl)c1", "note": "[Example 78, (5-amino-2,3-dihydroindol-1-yl)-(3,5-dichloro-4-hydroxyphenyl)-methanone]", "IC50": 18},
      {"compound": "O=C(c1cc(Br)c(O)c(Br)c1)N1CCOc2ccc(F)cc21", "note": "[Example 79, (3,5-dibromo-4-hydroxyphenyl)-(6-fluoro-2,3-dihydrobenzo[1,4]oxazin-4-yl)-methanone]", "IC50": 13},
      {"compound": "O=C(c1cc(Br)c(O)c(Br)c1)N1CCOc2ccc3ccccc3c21", "note": "[Example 80, (3,5-dibromo-4-hydroxyphenyl)-(2,3-dihydronaphtho[2,1-b][1,4]oxazin-1-yl)-methanone]", "IC50": 5},
      {"compound": "Cc1ccc2c(c1)N(C(=O)c1cc(Br)c(O)c(Br)c1)CCO2", "note": "[Example 81, (3,5-dibromo-4-hydroxyphenyl)-(6-methyl-2,3-dihydrobenzo[1,4]oxazin-4-yl)-methanone]", "IC50": 13},
      {"compound": "O=C(c1cc(Br)c(O)c(Br)c1)N1CCOc2ccc(Cl)cc21", "note": "[Example 82, (6-chloro-2,3-dihydrobenzo[1,4]oxazin-4-yl)-(3,5-dibromo-4-hydroxyphenyl)-methanone]", "IC50": 11},
      {"compound": "CS(=O)(=O)N1CCN(C(=O)c2cc(Cl)c(O)c(Cl)c2)c2ccccc21", "note": "[Example 83, (3,5-dichloro-4-hydroxyphenyl)-(4-methanesulfonyl-3,4-dihydro-2H-quinoxalin-1-yl)-methanone]", "IC50": "> 50"},
      {"compound": "CCS(=O)(=O)c1ccc2c(c1)N(C(=O)c1cc(Cl)c(O)c(Cl)c1)CCO2", "note": "[Example 84, (3,5-dichloro-4-hydroxyphenyl)-(6-ethanesulfonyl-2,3-dihydrobenzo[1,4]oxazin-4-yl)-methanone]", "IC50": 15},
      {"compound": "O=C(c1cc(Cl)c(O)c(Cl)c1)N1CCOc2ccc(C(F)(F)F)cc21", "note": "[Example 85, (3,5-dichloro-4-hydroxyphenyl)-(6-trifluoromethyl-2,3-dihydrobenzo[1,4]oxazin-4-yl)-methanone]", "IC50": 19},
      {"compound": "COc1c(Cl)cc(C(=O)N2CCOc3ccccc32)cc1Cl", "note": "[Example 86, (3,5-dichloro-4-methoxyphenyl)-(2,3-dihydrobenzo[1,4]oxazin-4-yl)-methanone]", "IC50": "> 50"},
      {"compound": "CC(=O)Oc1c(Cl)cc(C(=O)N2CCOc3ccccc32)cc1Cl", "note": "[Example 87, 2,6-dichloro-4-(2,3-dihydrobenzo[1,4]oxazine-4-carbonyl)-phenyl acetate]", "IC50": 31},
      {"compound": "O=C(c1ccc(O)cc1)N1CCOc2ccccc21", "note": "[Example 88, (2,3-dihydrobenzo[1,4]oxazin-4-yl)-(4-hydroxyphenyl)-methanone]", "IC50": "> 50"},
      {"compound": "O=C(c1cc(Cl)c(O)c(Cl)c1)N1CCOc2cccc(O)c21", "note": "[Example 89, (3,5-dichloro-4-hydroxyphenyl)-(5-hydroxy-2,3-dihydrobenzo[1,4]oxazin-4-yl)-methanone]", "IC50": 11},
      {"compound": "O=C(c1cc(Cl)c(O)c(Cl)c1)N1CCOc2c(O)cccc21", "note": "[Example 90, (3,5-dichloro-4-hydroxyphenyl)-(8-hydroxy-2,3-dihydrobenzo[1,4]oxazin-4-yl)-methanone]", "IC50": 21},
      {"compound": "CCOC(=O)COc1c(Cl)cc(C(=O)N2CCOc3ccccc32)cc1Cl", "note": "[Example 91, ethyl [2,6-dichloro-4-(2,3-dihydrobenzo[1,4]oxazine-4-carbonyl)phenoxy]acetate]", "IC50": "> 50"},
      {"compound": "O=C(O)COc1c(Cl)cc(C(=O)N2CCOc3ccccc32)cc1Cl", "note": "[Example 92, [2,6-dichloro-4-(2,3-dihydrobenzo[1,4]oxazine-4-carbonyl)phenoxy]acetic acid]", "IC50": "> 50"},
      {"compound": "O=C(c1cc(Cl)c(O)c(Cl)c1)N1CCCOc2ccccc21", "note": "[Example 95, (3,5-dichloro-4-hydroxyphenyl)-(7,8-dihydro-6H-5-oxa-9-azabenzocyclohepten-9-yl)-methanone]", "IC50": "> 50"}
    ]}
  ]
}
